According to US20110263593A1, “NOVEL IMIDAZO[1,2-a]PYRIMIDINE DERIVATIVES, METHOD FOR THE PREPARATION THEREOF, USE THEREOF AS MEDICAMENTS, PHARMACEUTICAL COMPOSITIONS AND NOVEL USE, IN PARTICULAR AS MET INHIBITORS” (sanofi-aventis, priority 2008, published 2011):
Where a name gives a salt, the structure may show the parent alone.

Assays:
[1] = test system: HCT116 cells and MKN45 cells; assay: Test C: measurement of cell proliferation by 14C-thymidine pulse; type: cell-based; conditions: 14C-thymidine incorporation, 96 h of treatment; cell line not stated (HCT116 and MKN45 in method)
Procedure: C) Test C: Measurement of cell proliferation by ^14C-thymidine pulse
The cells are seeded into Cytostar 96-well plates in 180 μl for 4 hours at 37° C. and 5% CO2: HCT116 cells at a rate of 2500 cells per well in DMEM medium+10% foetal calf serum+1% L-glutamine and MKN45 cells at a rate of 7500 cells per well in RPMI medium+10% foetal calf serum+1% L-glutamine. After these 4 hours of incubation, the products are added in 10 μl as a 20-fold concentrated solution according to the dilution method mentioned for the ELISA. The products are tested at 10 concentrations in duplicate from 10 000 nM to 0.3 nM with an increment of 3.
After treatment for 72 h, add 10 μl of ^14C-thymidine at 10 μCi/ml to obtain 0.1 μCi per well. The ^14C-thymidine incorporation is measured on a Micro-Beta machine (Perkin-Elmer) after 24 hours of pulse and 96 h of treatment.
All the stages of the assay are automated on BIOMEK 2000 or TECAN stations.

MET [2] = target: T1, MET (Homo sapiens, UniProt P08581); assay: Test B: inhibition of the autophosphorylation of MET, ELISA technique (pppY1230, 1234, 1235) in MKN45 cells; type: cell-based; parameters: endogenous in cells; host or cells: MKN45 cells; conditions: 1 h treatment, phosphoMET ELISA
Procedure: B) Test B: Inhibition of the Autophosphorylation of MET; ELISA Technique (pppY1230, 1234, 1235)
a) Cell lysates: Seed MKN45 cells into 96-well plates (Cell coat BD polylysine) at 20 000 cells/well in 200 μl in RPMI medium+10% FCS+1% L-glutamine. Leave to adhere for 24 hours in an incubator.
The cells are treated the day after seeding with the products at 6 concentrations in duplicate for 1 h. At least 3 control wells are treated with the same final amount of DMSO.
Product dilution: Stock at 10 mM in pure DMSO—range from 10 mM to 30 μM with an increment of 3 in pure DMSO—intermediate 1/50 dilutions in culture medium and then removal of 10 μl added directly to the cells (200 μl): final range from 10 000 to 30 nM.
At the end of the incubation, carefully remove the supernatant and rinse with 200 μl of PBS. Next, place 100 μl of lysis buffer directly in the wells on ice and incubate at 4° C. for 30 minutes. Lysis buffer: 10 mM Tris HCl, pH 7.4, 100 mM NaCl, 1 mM EDTA, 1 mM EGTA, 1% Triton X-100, 10% glycerol, 0.1% SDS, 0.5% deoxycholate, 20 mM NaF, 2 mM Na3VO4, 1 mM PMSF and cocktail of antiproteases.
The 100 μl of lysates are transferred into a V-bottomed polypropylene plate and the ELISA is performed immediately, or the plate is frozen at −80° C.
b) PhosphoMET ELISA BioSource Kit KH00281
Into each well of the kit plate, add 70 μl of kit dilution buffer+30 μl of cell lysate or 30 μl of lysis buffer for the blanks. Incubate for 2 h with gentle agitation at ambient temperature.
Rinse the wells 4 times with 400 μl of kit washing buffer. Incubate with 100 μl of anti-phospho MET antibody for 1 hour at ambient temperature.
Rinse the wells 4 times with 400 μl of kit washing buffer. Incubate with 100 μl of anti-rabbit HRP antibody for 30 minutes at ambient temperature (except for the wells of chromogen alone).
Rinse the wells 4 times with 400 μl of kit washing buffer. Introduce 100 μl of chromogen and incubate for 30 minutes in the dark at ambient temperature.
Stop the reaction with 100 μl of stop solution. Read without delay at […], 0.1 second on Wallac Victor plate reader.
Target sequence in this assay (P08581 25-1390): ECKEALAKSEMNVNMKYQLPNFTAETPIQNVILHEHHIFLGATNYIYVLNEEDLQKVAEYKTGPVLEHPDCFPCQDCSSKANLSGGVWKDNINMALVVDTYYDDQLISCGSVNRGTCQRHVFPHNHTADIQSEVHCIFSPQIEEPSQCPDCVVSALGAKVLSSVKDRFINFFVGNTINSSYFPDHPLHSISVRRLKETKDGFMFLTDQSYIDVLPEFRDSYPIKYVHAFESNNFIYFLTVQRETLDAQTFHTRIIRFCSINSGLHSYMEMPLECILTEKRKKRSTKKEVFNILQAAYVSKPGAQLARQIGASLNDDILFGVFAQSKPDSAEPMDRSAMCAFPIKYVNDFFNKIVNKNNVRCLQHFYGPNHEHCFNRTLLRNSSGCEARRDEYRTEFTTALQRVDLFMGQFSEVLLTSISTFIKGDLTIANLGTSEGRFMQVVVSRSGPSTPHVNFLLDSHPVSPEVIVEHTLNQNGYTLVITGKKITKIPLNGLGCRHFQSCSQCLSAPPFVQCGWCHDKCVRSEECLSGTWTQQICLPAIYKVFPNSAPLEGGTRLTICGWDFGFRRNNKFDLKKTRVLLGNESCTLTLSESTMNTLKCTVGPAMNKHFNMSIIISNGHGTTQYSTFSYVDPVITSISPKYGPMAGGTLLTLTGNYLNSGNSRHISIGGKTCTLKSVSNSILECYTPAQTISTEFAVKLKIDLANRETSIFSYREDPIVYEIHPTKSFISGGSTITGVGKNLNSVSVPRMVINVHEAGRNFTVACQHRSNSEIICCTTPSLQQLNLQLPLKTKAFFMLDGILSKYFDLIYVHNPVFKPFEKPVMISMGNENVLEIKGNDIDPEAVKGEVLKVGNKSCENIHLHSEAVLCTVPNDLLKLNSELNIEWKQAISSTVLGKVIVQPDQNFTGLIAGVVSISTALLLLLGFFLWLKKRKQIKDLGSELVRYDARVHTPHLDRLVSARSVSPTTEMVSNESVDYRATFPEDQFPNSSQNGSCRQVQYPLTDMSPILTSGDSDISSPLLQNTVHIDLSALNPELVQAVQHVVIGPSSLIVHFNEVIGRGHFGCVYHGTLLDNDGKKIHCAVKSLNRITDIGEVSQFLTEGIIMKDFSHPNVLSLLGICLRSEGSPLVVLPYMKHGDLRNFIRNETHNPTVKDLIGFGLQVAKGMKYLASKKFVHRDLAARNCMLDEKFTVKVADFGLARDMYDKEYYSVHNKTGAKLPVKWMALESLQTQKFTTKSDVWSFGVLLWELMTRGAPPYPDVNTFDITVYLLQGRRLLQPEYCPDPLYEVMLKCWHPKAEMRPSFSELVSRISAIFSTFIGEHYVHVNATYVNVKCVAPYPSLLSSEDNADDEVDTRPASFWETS

MET [3] = target: T1, MET; assay: Test A: HTRF MET assay in 96-well format; type: biochemical; parameters: The His-Tev-MET (956-1390) recombinant DNA in pFastBac (Invitrogen) is transfected into insect cells; His (N, cleaved yes); Tev cleavage site (N, cleaved yes); made in house; host or cells: SF21 insect cells (baculovirus, pFastBac); conditions: 5 nM MET, 10 μM ATP
Procedure: I) Expression and Purification of MET, Cytoplasmic Domain
The His-Tev-MET (956-1390) recombinant DNA in pFastBac (Invitrogen) is transfected into insect cells and, after several viral amplification stages, the final baculovirus stock is tested for the expression of the protein of interest.
After infection for 72 h at 27° C. with the recombinant virus, the SF21 cell cultures are harvested by centrifugation and the cell pellets are stored at −80° C.
The cell pellets are resuspended in lysis buffer (buffer A [50 mM HEPES, pH 7.5, 250 mM NaCl, 10% glycerol, 1 mM TECP]; + cocktail of protease inhibitors, Roche Diagnostics, without EDTA, ref. 1873580), stirred at 4° C. until the mixture is homogeneous and then lysed mechanically using a “Dounce” type apparatus.
After centrifugation, the lysis supernatant is incubated for 2 h at 4° C. with nickel chelate resin (His-Trap 6 Fast Flow™, GE HealthCare). After washing with 20 volumes of buffer A, the suspension is packed into a column, and the proteins are eluted with a gradient of buffer B (buffer A+290 mM imidazole).
The fractions comprising the protein of interest for the purpose of electrophoretic analysis (SDS PAGE) are combined, concentrated by ultrafiltration (10 kDa cut-off) and injected onto an exclusion chromatography column (Superdex™ 200, GE HealthCare) equilibrated in buffer A.
After enzymatic cleavage of the histidine tag, the protein is reinjected onto a new IMAC nickel chelate chromatography column (His-Trap 6 Fast Flow™, GE HealthCare) equilibrated in buffer A. The fractions eluted with a gradient of buffer B and comprising the protein of interest after electrophoresis (SDS PAGE) are finally combined and conserved at −80° C.
For the production of autophosphorylated protein, the previous fractions are incubated for 1 h at ambient temperature after the addition of 2 mM ATP, 2 mM MgCl2, and 4 mM Na3VO4. After the reaction has been stopped with 5 mM of EDTA, the reaction mixture is injected onto a HiPrep desalifying column (GE HealthCare) preequilibrated in buffer A+4 mM Na3VO4, and the fractions comprising the protein of interest (SDS PAGE analysis) are combined and stored at −80° C. The degree of phosphorylation is verified by mass spectrometry (LC-MS) and by peptide mapping.
A) Test A: HTRF MET Assay in 96-Well Format
MET at a final concentration of 5 nM is incubated in a final volume of 50 μl of enzymatic reaction in the presence of the test molecule (for a final concentration range of from 0.17 nM to 10 μM, 3% DMSO final concentration) in 10 mM MOPS buffer, pH 7.4, 1 mM DTT, 0.01% Tween 20. The reaction is initiated with the substrate solution to obtain final concentrations of 1 μg/ml poly-(GAT), 10 μM ATP and 5 mM MgCl2. After incubation for 10 min at ambient temperature, the reaction is stopped with a 30 μl mix so as to obtain a final solution of 50 mM Hepes, pH 7.5, 500 mM potassium fluoride, 0.1% BSA and 133 mM EDTA in the presence of 80 ng of streptavidin 61SAXLB Cis-Bio Int. and 18 ng of anti-phosphotyrosine Mab PT66-Europium Cryptate per well. After incubation for 2 hours at ambient temperature, the reading is taken at 2 wavelengths, 620 nm and 665 nm, on a reader for the TRACE/HTRF technique and the % inhibition is calculated from the 665/620 ratios.
Target sequence in this assay (P08581 956-1390): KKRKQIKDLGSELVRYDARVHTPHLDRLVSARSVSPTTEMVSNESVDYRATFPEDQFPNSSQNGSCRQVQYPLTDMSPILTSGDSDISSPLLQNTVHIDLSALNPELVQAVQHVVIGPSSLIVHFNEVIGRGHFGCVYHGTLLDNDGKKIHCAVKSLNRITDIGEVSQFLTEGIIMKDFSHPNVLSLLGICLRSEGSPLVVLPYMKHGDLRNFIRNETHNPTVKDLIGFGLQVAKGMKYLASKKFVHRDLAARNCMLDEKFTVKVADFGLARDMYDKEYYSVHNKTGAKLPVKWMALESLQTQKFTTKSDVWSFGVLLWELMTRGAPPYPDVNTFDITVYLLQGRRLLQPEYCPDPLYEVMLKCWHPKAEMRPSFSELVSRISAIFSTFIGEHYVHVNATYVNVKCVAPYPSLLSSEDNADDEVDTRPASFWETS

| melting point | IC50 [1] | IC50 (MET [2]) | IC50 (MET [3]) | Structure (SMILES) |
| --- | --- | --- | --- | --- |
| > 260 °C | < 1000 nM | < 500 nM | < 100 nM | CC(C)(C)OC(=O)NCC(=O)Nc1nc2ccc(Sc3cnc4ncccn34)cc2s1 [Example 11, 2-methylpropan-2-yl(2-{[6-(imidazo[1,2-a]pyrimidin-3-ylsulphanyl)-1,3-benzothiazol-2-yl]amino}-2-oxoethyl)carbamate] |
| > 260 °C | < 1000 nM | < 100 nM | < 100 nM | O=C(Nc1nc2cc(F)c(Sc3cnc4ncccn34)cc2s1)C1CC1 [Example 18, N-[5-fluoro-6-(imidazo[1,2-a]pyrimidin-3-ylsulphanyl)-1,3-benzothiazol-2-yl]cyclopropanecarboxamide] |
| 232 °C | < 1000 nM | < 100 nM | < 100 nM | O=C(Nc1nc2ccc(S(=O)(=O)c3cnc4ncccn34)cc2s1)C1CC1 [Example 7, N-[6-(imidazo[1,2-a]pyrimidin-3-ylsulphonyl)-1,3-benzothiazol-2-yl]cyclopropanecarboxamide] |
| > 264 °C | < 1000 nM | < 100 nM | < 100 nM | Nc1ccn2c(Sc3ccc4nc(NC(=O)C5CC5)sc4c3)cnc2n1 [Example 22, N-{6-[(7-aminoimidazo[1,2-a]pyrimidin-3-yl)sulphanyl]-1,3-benzothiazol-2-yl}cyclopropanecarboxamide] |
| – | < 1000 nM | < 100 nM | < 100 nM | CN1CCN(CC(=O)Nc2nc3ccc(Sc4cnc5ncccn45)cc3s2)CC1=O [Example 21, N-[6-(imidazo[1,2-a]pyrimidin-3-ylsulphanyl)-1,3-benzothiazol-2-yl]-2-(4-methyl-3-oxopiperazin-1-yl)acetamide] |
| – | < 1000 nM | – | < 500 nM | NCC(=O)Nc1nc2ccc(Sc3cnc4ncccn34)cc2s1 [Example 12, N-[6-(imidazo[1,2-a]pyrimidin-3-ylsulphanyl)-1,3-benzothiazol-2-yl]glycinamide dihydrochloride] |
| > 260 °C | < 1000 nM | – | < 500 nM | O=C(Nc1nc2ccc([S+]([O-])c3cnc4ncccn34)cc2s1)C1CC1 (centres unmarked) [Example 6, N-[6-(imidazo[1,2-a]pyrimidin-3-ylsulphinyl)-1,3-benzothiazol-2-yl]cyclopropanecarboxamide] |
| – | < 1000 nM | < 100 nM | < 100 nM | O=C(Nc1nc2ccc(Sc3cnc4ncccn34)cc2s1)C1CC1CN1CCOCC1 (stereo not drawn) [Example 13, (trans-A)-N-[6-(imidazo[1,2-a]pyrimidin-3-ylsulphanyl)-1,3-benzothiazol-2-yl]-2-(morpholin-4-ylmethyl)cyclopropanecarboxamide] |
| > 260 °C | < 1000 nM | – | < 500 nM | O=C(Nc1nc2ccc(Sc3cnc4ncccn34)cc2s1)c1ccccc1 [Example 9, N-[6-(imidazo[1,2-a]pyrimidin-3-ylsulphanyl)-1,3-benzothiazol-2-yl]benzamide] |
| – | < 1000 nM | < 100 nM | < 100 nM | Nc1nc2ccc(Sc3cnc4ncc(NC5CCCCC5)cn34)cc2s1 [Example 25, 3-[(2-amino-1,3-benzothiazol-6-yl)sulphanyl]-N-cyclohexylimidazo[1,2-a]pyrimidin-6-amine] |
| – | < 1000 nM | < 100 nM | < 100 nM | CN1CCN(CC(=O)Nc2nc3ccc(Sc4cnc5ncccn45)cc3s2)CC1 [Example 10, N-[6-(imidazo[1,2-a]pyrimidin-3-ylsulphanyl)-1,3-benzothiazol-2-yl]-2-(4-methylpiperazin-1-yl)acetamide] |
| – | < 1000 nM | < 100 nM | < 100 nM | O=C(Nc1nc2ccc(Sc3cnc4ncc(-c5cccc(F)c5)cn34)cc2s1)C1CC1 [Example 23, N-(6-{[6-(3-fluorophenyl)imidazo[1,2-a]pyrimidin-3-yl]sulphanyl}-1,3-benzothiazol-2-yl)cyclopropanecarboxamide] |
| – | < 1000 nM | < 100 nM | < 100 nM | O=C(Nc1nc2ccc(Sc3cnc4ncc(OC5CCCCC5)cn34)cc2s1)C1CC1 [Example 24, N-(6-{[6-(cyclohexyloxy)imidazo[1,2-a]pyrimidin-3-yl]sulphanyl}-1,3-benzothiazol-2-yl)cyclopropanecarboxamide] |
| – | < 1000 nM | – | < 100 nM | O=C(Nc1nc2ccc(Sc3cnc4ncccn34)cc2s1)C1CC1CN1CCOCC1 (stereo not drawn) [Example 14, (trans-B)-N-[6-(imidazo[1,2-a]pyrimidin-3-ylsulphanyl)-1,3-benzothiazol-2-yl]-2-(morpholin-4-ylmethyl)cyclopropanecarboxamide] |
